From ChEMBL document CHEMBL1201862, “PubChem BioAssay data set” (2004)
Calls of active or inactive are those of the source.

How the values were obtained:
[1] = target: T1, NADPH oxidase 1 (Homo sapiens, UniProt Q9Y5S8); assay type: functional, cell-based;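 further: Cell-based assay with luminescence read-out, IC50 derived from inhibitor dose-response curves; intracellular ROS from endogenous NOX1 in intact HT29 colon cancer cells; potency of inhibitors that lower the ROS luminescence signal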
T1 sequence (Q9Y5S8 whole entry): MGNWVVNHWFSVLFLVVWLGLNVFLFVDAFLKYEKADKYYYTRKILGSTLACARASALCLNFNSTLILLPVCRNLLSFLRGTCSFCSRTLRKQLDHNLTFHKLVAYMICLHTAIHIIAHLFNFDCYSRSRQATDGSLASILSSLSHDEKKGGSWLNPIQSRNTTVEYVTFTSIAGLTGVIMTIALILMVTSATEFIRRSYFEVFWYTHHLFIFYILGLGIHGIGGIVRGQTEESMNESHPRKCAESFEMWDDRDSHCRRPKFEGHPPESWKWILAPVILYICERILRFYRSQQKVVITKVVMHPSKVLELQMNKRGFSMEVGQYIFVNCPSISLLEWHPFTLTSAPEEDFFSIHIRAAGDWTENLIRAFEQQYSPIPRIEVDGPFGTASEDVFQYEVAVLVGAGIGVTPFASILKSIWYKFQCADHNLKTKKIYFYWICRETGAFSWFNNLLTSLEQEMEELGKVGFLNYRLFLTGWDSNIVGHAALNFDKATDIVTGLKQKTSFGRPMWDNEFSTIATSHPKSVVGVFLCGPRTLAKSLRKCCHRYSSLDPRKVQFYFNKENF

[2] = Luminescence Cell-Based Dose Response to Identify Activators of 5'UTR Stem-Loop Driven Prion Protein mRNA Translation in H4-C Neuroglioblastoma Cells. [Related pubchem assays: 1829 (Project Summary), 1814 (Primary HTS)]; assay type: functional
[3] = Luminescence Cell-Based Dose Confirmation HTS to Identify Activators of 5'UTR Stem-Loop Driven Alpha-Synuclein mRNA Translation in H4 Neuroglioblastoma Cells. [Related pubchem assays: 1829 (Project Summary), 1814 (Primary HTS)]; assay type: functional
[4] = decrease of insulin promoter-GFP reporter – imaging, high-content screening, mouse beta cells (AID 1628); assay type: functional; details: MIN6
[5] = Luminescence Cell-Based Dose Response HTS to Identify Activators of Luciferase Translation or Activity in H4 […] Cells. [Related pubchem assays: 1829 (Project Summary), 1814 (Primary HTS)]; assay type: functional
[6] = system: BJ; assay: BJ-TERT fibroblast viability loss – cell-based, RAS-independent, luminescence, dose response (AID 1933); assay type: functional; details: Homo sapiens
[7] = MIN6 cell viability loss – mouse insulinoma, cytotoxicity control, dose response (AID 2122); assay type: functional;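 further: confirmatory high-throughput counterscreen run to flag cytotoxic compounds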
[8] = system: BJ; assay: cells; assay type: functional, cell-based; details: Homo sapiens
[9] = Luminescence Cell-Based Dose Response to Identify Activators of Luciferase Translation or Activity in H4-C Neuroglioblastoma Cells. [Related pubchem assays: 1829 (Project Summary), 1814 (Primary HTS)]; assay type: functional
[10] = Luminescence-based dose response cell-based high throughput screening assay for cytotoxic compounds using the IEC-6 intestinal epithelial cell line. [Related pubchem assays: 1858 (Summary AID.), 1825 (Counterscreen.), 1907 (Confirmation screen.)]; assay type: functional
[11] = Luminescence Cell-Based Dose Confirmation to Identify Activators of 5'UTR Stem-Loop Driven Alpha-Synuclein mRNA Translation in H4 Neuroglioblastoma Cells. [Related pubchem assays: 1829 (Project Summary), 1814 (Primary HTS)]; assay type: functional
[12] = system: BJ; assay: BJ-TERT-LT-ST fibroblast viability loss – cell-based, RAS-independent, luminescence, dose response (AID 1935); assay type: functional; details: Homo sapiens;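 further: BJ fibroblasts immortalized with TERT plus LT and ST oncogenes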
[13] = DRD fibroblast viability loss – cell-based, non-viral oncogenic, luminescence, dose response (AID 1934); assay type: functional; details: Homo sapiens
[14] = system: BJ; assay: growth inhibition of engineered Ras-driven BJ cells – cell-based, alamar blue fluorescence, cherrypicked samples, dose response (AID 2631); assay type: functional; details: Homo sapiens;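 further: confirmatory dose-response assay in RAS-dependent BJ fibroblasts engineered with TERT, LT and ST, with cytotoxicity read by fluorescence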
[15] = reduction of Shn3 3'UTR-driven luciferase in osteoblasts – cell-based, Clone20 osteoblasts, firefly luciferase, cherry-picked, dose response (AID 624132); assay type: functional;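 further: firefly luciferase luminescence from reporter carrying the Shn3 3'UTR in osteoblasts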
[16] = non-specific 3'UTR reporter inhibition in Clone20-Shn3RL – cell-based, Renilla luciferase, cherry-picked, counter-screen for Shn3 inhibitor project, dose response (AID 624133); assay type: functional
[17] = blockers of HIV-1 envelope-mediated cell-cell fusion – cherry-pick, dose response (AID 652057); assay type: functional, cell-based
[18] = viability loss in CEM21 cells – cell-based, CellTiter-Glo luminescence, cherry-picked, cytotoxicity control for viral fusion inhibitor project, dose response (AID 652042); assay type: functional;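 further: potency for signal decrease meaning cytotoxicity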
[19] = blockers of HIV-1 ZM109 envelope-driven cell-cell fusion – HeLa effector, CEM target cells, luciferase, cherry-pick, dose response (AID 652058); assay type: functional, cell-based;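 further: luciferase signal from HIV-1 Env mediated cell-cell fusion of effector and target cells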
[20] = off-target signal loss in HeLa-CEM21 co-culture – HeLa F-luc CTL cells, cherry-picked, counter-screen for HIV-1 Env fusion inhibitor project, dose response (AID 652040); assay type: functional, cell-based;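 further: potency for signal decrease marking cytotoxic or nonspecific inhibition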
[21] = HIV-1 AD8 envelope cell-cell fusion blockers – cherry-pick, dose response (AID 652062); assay type: functional, cell-based;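 further: luciferase signal from cell-cell fusion driven by HIV-1 clade B AD8 Env; potency is for inhibitors of fusion seen as a drop in luminescence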
[22] = target: COUP transcription factor 2 (Homo sapiens, UniProt P24468); assay: Luminescence-based cell-based high throughput dose response assay to identify inhibitors of COUP-TFII (NR2F2).; assay type: functional;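 further: HEK293 cells transiently cotransfected with COUP-TFII expression vector and reporter; luciferase reporter luminescence driven by COUP-TFII from the pX2-168 reporter plasmid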
[23] = target: Induced myeloid leukemia cell differentiation protein Mcl-1 (Homo sapiens, UniProt Q07820); assay: blockers of MCL1 binding to BIM peptide – biochemical, fluorescence polarization, BIM-BH3 peptide, 1536-well, dose response (AID 2217)
[24] = target: Bcl-2-like protein 1 (Homo sapiens, UniProt Q07817); assay: blockers of BCLXL peptide binding – biochemical, fluorescence polarization, 1536-well, selectivity assay for MCL1 inhibitor project, dose response (AID 2218)
[25] = target: T2, Caspase-6 (Homo sapiens, UniProt P55212); assay: inhibition of CASP6 peptide cleavage – biochemical, VEID-R110 fluorescence, cherry-pick, dose response (AID 720632)
T2 sequence (P55212 whole entry): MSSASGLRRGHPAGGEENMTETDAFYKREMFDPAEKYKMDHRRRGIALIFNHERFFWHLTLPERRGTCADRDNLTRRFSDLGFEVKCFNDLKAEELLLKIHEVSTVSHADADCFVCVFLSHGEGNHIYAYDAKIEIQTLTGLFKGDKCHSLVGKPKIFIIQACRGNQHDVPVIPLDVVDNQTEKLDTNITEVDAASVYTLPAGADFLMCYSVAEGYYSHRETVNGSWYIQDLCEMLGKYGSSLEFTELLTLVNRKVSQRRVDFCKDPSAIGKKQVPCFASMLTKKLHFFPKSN

Sequence of Bcl-2-like protein 1 (Q07817 whole entry): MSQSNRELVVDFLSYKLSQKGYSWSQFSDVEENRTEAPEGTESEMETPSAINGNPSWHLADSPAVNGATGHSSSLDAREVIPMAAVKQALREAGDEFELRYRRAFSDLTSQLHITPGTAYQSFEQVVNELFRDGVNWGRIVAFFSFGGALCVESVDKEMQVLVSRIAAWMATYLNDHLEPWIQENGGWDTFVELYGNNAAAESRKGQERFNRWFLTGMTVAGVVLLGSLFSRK
Sequence of Induced myeloid leukemia cell differentiation protein Mcl-1 (Q07820 whole entry): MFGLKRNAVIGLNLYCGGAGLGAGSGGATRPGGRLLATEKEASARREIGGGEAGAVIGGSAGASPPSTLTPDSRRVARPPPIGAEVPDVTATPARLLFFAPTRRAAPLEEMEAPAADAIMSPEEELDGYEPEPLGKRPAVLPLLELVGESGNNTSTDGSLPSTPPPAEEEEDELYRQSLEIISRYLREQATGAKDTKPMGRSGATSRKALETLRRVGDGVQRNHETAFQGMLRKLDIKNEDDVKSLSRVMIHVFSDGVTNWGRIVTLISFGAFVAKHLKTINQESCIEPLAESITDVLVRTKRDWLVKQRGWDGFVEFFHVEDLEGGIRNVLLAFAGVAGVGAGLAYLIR
Sequence of COUP transcription factor 2 (P24468 whole entry): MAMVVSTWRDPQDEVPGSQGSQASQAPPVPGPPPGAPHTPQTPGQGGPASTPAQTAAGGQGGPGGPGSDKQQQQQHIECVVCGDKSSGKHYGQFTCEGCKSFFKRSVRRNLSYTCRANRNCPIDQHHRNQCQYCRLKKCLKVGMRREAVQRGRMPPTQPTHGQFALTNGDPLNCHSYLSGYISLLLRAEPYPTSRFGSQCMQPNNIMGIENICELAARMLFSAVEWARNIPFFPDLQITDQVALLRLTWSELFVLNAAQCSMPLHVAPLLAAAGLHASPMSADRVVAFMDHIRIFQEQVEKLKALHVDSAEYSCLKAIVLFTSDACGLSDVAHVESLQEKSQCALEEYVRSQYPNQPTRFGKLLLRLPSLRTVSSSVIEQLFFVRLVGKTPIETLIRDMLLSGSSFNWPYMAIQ

In the case of `O=C(Nc1ccc(NC(=O)c2ccccc2O)cc1)Nc1ccc(OCc2ccccc2)cc1`, the IC50 [1] was > 17 µM (not active).

For `O=C1N(c2ccccc2)C[C@@H]2C[C@@H](c3cc4ccccc4o3)N3CCC[C@@]123`, the EC50 [2] was 239 nM (inconclusive), the EC50 [3] was > 120 µM (not active) and the IC50 [4] was 441 nM (active). The EC50 [5] was > 120 µM (not active), the EC50 [6] was 1.37 µM (active) and the IC50 [7] was 535 nM (active). For the same compound, the EC50 [8] was 2.35 µM (active), the EC50 [9] was 266 nM (inconclusive) and the IC50 [10] was 189 nM (active). The EC50 [11] was 1.6 µM (active), the EC50 [12] was 318 nM (inconclusive) and the EC50 [13] was 480 nM (active). For the same compound, the EC50 [14] was 205 nM (active), the AC50 [15] was 536 nM (active) and the AC50 [16] was 29.9 µM (active). For the same compound, the AC50 [17] was 1.01 µM (active), the AC50 [18] was 534 nM (active) and the AC50 [19] was 1.3 µM (active). For the same compound, the AC50 [20] was 1.26 µM (active), the AC50 [21] was 1.27 µM (active) and the IC50 [22] was 737 nM (active).

With `C/C(=N\NC(=O)c1cc(O)ccc1O)c1cccc(NC(=O)c2ccc(Cl)cc2)c1` the IC50 [23] was 59.1 µM (not active), the IC50 [24] was > 109 µM (not active) and the AC50 [25] was 8.91 µM (active).
